Reference: patent US11007169B2, “Cis-gnetin H and trans-gnetin H as therapeutic agents” (MIDDLE TENNESSEE STATE UNIVERSITY, priority 2014, dated 2021)
pIC50: −log10 of the molar value.

What was measured:
[1] = tested on: A549 cells (human lung carcinoma); test: Inhibition of cell proliferation, AlamarBlue fluorescent assay, A549; assay type: cell-based; settings: for inhibition at 10 µM: 48-hours treatment; for pIC50: 48 hours, AlamarBlue, cancer cell line
Method: (§1) The cancer cell lines used in this study included human lung carcinoma (A549), human breast carcinoma (BT20 and MCF-7) and human osteosarcoma (U2OS), with the normal cell lines human peripheral lung epithelial cells (HPL1A) and human mammary epithelial cells (HMEC) serving as controls. A549, BT20, MCF-7, U2OS and HMEC cells were purchased from American Type Culture Collection (ATCC, USA), and HPL1A cells were obtained from Nagoya University, Japan. A549 and BT20 were grown in RPMI-1640 (Sigma), MCF-7 was grown in Dulbecco's Modified Eagle Medium (DMEM) (Sigma) supplemented with 0.01 mg/ml human recombinant insulin (Sigma), U2OS and HMEC were grown in McCoy's 5A (ATCC), and HPL1A was grown in DMEM/F-12K (Sigma). The mediums were supplemented with 10% Fetal Bovine Serum (FBS) (Gibco), 1% penicillin and streptomycin and incubated in a humidified atmosphere with 5% CO2 at 37° C.
(§2) The proliferation inhibition potential of cis- and trans-gnetin H was determined by a fluorescence dye staining method. Cells were seeded in a 96-well tissue culture-treated plate (BD Falcon) at a density of 4000 cells/well, and treated with cis- or trans-gnetin H for 48 hours. AlamarBlue dye (Invitrogen) was used to assess the viability of cells according to the manufacturer's instructions; the fluorescent intensity was read on a SpectraMax M2e microplate reader (Molecular Devices Inc.).
For the determination of IC50 values, cells were treated with a serial dilution (320 μM, 100 μM, 32 μM, 10 μM, 3.2 μM, and 0.32 μM) of cis- or trans-gnetin H for 48 hours. Cell viability was determined with AlamarBlue dye (Invitrogen) and the IC50 values were calculated using non-linear regression analysis.

[2] = tested on: A549 cells; test: Multi-parameter cytotoxicity measurement, Arrayscan VTI HCS Reader; assay type: cell-based, human; settings: for mitochondria transmembrane potential: A549, after both 24 hrs and 48 hrs
Method: A549 cells were seeded in a 96-well plate (BD Falcon) at a density of 4000 cells/well, and then treated with different concentrations ([…] 100 μM) of cis- or trans-gnetin H for 24 hours and 48 hours. Non-treated cells and cells treated with 100 μM Valinomycin were used as negative and positive controls. After treatment, the cells were stained with a mixture of fluorescent dyes including Hoechst 33342 (blue florescence), cell permeability dye (green florescence) and mitochondrial membrane potential dye (red florescence) (Thermo Scientific). The three dyes allow changes in nuclear morphology, cell membrane permeability and mitochondrial trans-membrane potential to be determined. The cells were fixed and washed, and images for each fluoroprobe were acquired at different channels using suitable filters with a 20× objective and analyzed on the Arrayscan VTI HCS Reader (Thermo Scientific). The Cell Health Profiling BioApplication software (Thermo Scientific) was used for image acquisition and analysis. For each well, at least 400 cells were automatically acquired and analyzed. The average fluorescent intensity was used to quantify changes in each channel and each experiment was performed in triplicate.

[3] = tested on: BT20 cells; test: Apoptosis assay by flow cytometry, BT20; assay type: cell-based, human; settings: 100 μM, 24 hours
Method: A549 and BT20 cells were seeded in a 96-well plate (BD Falcon) at a density of 8000 cells/well, and treated with cis- or trans-gnetin H for 24 hours. Apoptosis was assessed using Annexin V/7-AAD double staining as described (Bai et al., Cancer Sci. 2010; 101(2):488-493). Cells were analyzed on a Guava Flow Cytometer (Millipore) using InCyte software and the data was exported to FlowJo software for image display.

[4] = tested on: BT20 cells; test: Cell cycle analysis by flow cytometry, BT20; assay type: cell-based, human; settings: 100 μM, 24 hours
Method: A549 and BT20 cells were first synchronized in the G0 phase by culturing cells for 24 hours in serum-free medium and then treated with 100 μM cis- or trans-gnetin H for 24 hours, respectively. Cell cycle analysis was done using propidium iodide (PI) staining as described (An et al., Mol. Cancer Ther. 2007; 6:61-9) and the cells were analyzed on a Guava Flow Cytometer with InCyte software (Millipore).

[5] = tested on: MCF-7 cells (human breast carcinoma); test: Inhibition of cell proliferation, AlamarBlue fluorescent assay, MCF-7; assay type: cell-based; settings: MCF7, 48 hours, cancer cell line
Method: as §1
as §2, with “Inc.). […]” for “Inc.).”

[6] = Stability testing, 6 months in the dark at room temperature, HPLC; assay type: physicochemical; settings: 6-month storage in the dark at room temperature, 1 mg/ml in methanol
Method: For stability testing, cis- and trans-gnetin H were dissolved with methanol to a concentration of 1 mg/ml. The stock solutions were sealed in a glass bottle and kept in the dark at room temperature for 6 months and then the purity of the two compounds was tested using the HPLC method previously described (He et al., J. Liq. Chromatog. Rel. Technol. 2013; 36:1708-1724). For conversion testing, cis- and trans-gnetin H were individually illuminated with a 12-watt fluorescent lamp for 2, 4 and 6 hours, and the compounds were identified using HPLC.

[7] = tested on: normal cells (HPL1A, HMEC); test: IC50 determination, normal cell lines; assay type: cell-based; settings: Homo sapiens; HPL1A and HMEC, 48 hours; read-out: IC50 values in normal cells (range over cell lines)
Method: as §1
as §2, with “Inc.). […]” for “Inc.).”

[8] = tested on: IL-1β in LPS-stimulated THP-1 cells; test: Cytokine response by ELISA, IL-1β; assay type: cell-based, human; settings: cis 12.5-50 μM, trans 8-30 μM, 20 ng/ml LPS, p<0.05
Method: THP-1 cells were maintained in RPMI 1640 medium supplemented with 10% complement-inactivated FBS and 1% penicillin/streptomycin (complete culture medium) at 37° C. with 5% CO2 supplemented. Cell concentrations were adjusted to desired concentrations for each experiment by centrifugation at 500×g for 5 min and resuspended in complete culture medium with 100 nM of PMA. Cell concentration was adjusted to 5×10^5 cells/ml for all assays and 2.5×10^5 cells/ml were used for NF-κB nuclear translocation assay. Cells were seeded onto 96-, 24-, or 12-well plates and incubated for 48 to 72 h to allow for differentiation. Cells were washed with serum-free RPMI 1640 medium before each experiment to remove the undifferentiated cells.
Differentiated THP-1 cells were pretreated with various concentrations of cis-gnetin H, trans-gnetin H, or 1 μM of dexamethasone for 1 h and stimulated with 20 ng/ml of LPS for 4 h. Dexamethasone is a synthetic glucocorticoid that suppresses cytokine response and was used as a positive control (Abraham et al., 2006, J. Exp. Med., 203:1883-9; Steer et al., J. Biol. Chem., 2000, 275(24):18432-40). Supernatants were collected for human cytokine ELISAs and the manufacturer's protocol was followed to assess the cytokine response. Cells remaining after the supernatant collection were tested for relative viability by Alamar Blue cytotoxicity assay as described earlier.

| SMILES | inhibition at 10 µM [1] | pIC50 [1] | nuclear size ([2]; A549, 24 hrs treatment) | nuclear size ([2]; A549, 48 hrs treatment) | mitochondria transmembrane potential [2] | apoptosis induction in BT20 [3] | G0-G1 subpopulation, BT20 [4] | M and G2-S subpopulation, BT20 [4] | pIC50 [5] | chemical identity after storage [6] | pIC50 [7] | inhibition of IL-1β [8] |
| --- | --- | --- | --- | --- | --- | --- | --- | --- | --- | --- | --- | --- |
| Oc1ccc(/C=C\c2c3c(cc4c2[C@H](c2cc(O)cc(O)c2)[C@@H](c2ccc(O)cc2)O4)O[C@H](c2ccc(O)cc2)[C@H]3c2cc(O)cc(O)c2)cc1 [cis-gnetin H] | ~99% | 5.55 | no alternation in nuclear size | reduction in nuclear size | reduction in the mitochondria transmembrane potential | induce apoptosis | increased significantly | significant decrease | 5.00 | no obvious changes | 4.04 to 4.59 | significant inhibition |
| Oc1ccc(/C=C/c2c3c(cc4c2[C@H](c2cc(O)cc(O)c2)[C@@H](c2ccc(O)cc2)O4)O[C@H](c2ccc(O)cc2)[C@H]3c2cc(O)cc(O)c2)cc1 [trans-gnetin H] | ~99% | 5.59 | no alternation in nuclear size | reduction in nuclear size | reduction in the mitochondria transmembrane potential | induce apoptosis | increased significantly | significant decrease | 5.12 | no obvious changes | 4.04 to 4.59 | significant inhibition |
